# Assay results reported in PubChem BioAssay AID328 (DTP/NCI, 2004).
# Several values for one entry are separate records, joined by “and”; a condition that tells them apart may be missing. Equal entries are not always repeated. Toxic doses and inconclusive results are not listed.
# Tested on: BDF1 mice, P388 leukemia ip, median survival T/C
# Assay: NCI In Vivo Anticancer Drug Screen. Data for tumor model P388 Leukemia (intraperitoneal) in B6D2F1 (BDF1) mice
# Settings: endpoint: median survival time, higher = longer survival
# Summary of the method: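 T/C = treated-group survival ÷ vehicle-control survival; tumour transplanted into mice before dosing.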
# [1] = dose: 50.0 mg/kg/injection, schedule: Q01DX009 (ip), vehicle: saline
# [2] = dose: 100.0 mg/kg/injection, schedule: Q01DX009 (ip), vehicle: saline
# [3] = dose: 100.0 mg/kg/injection, schedule: Q04DX003 (ip), vehicle: saline sonified
# [4] = dose: 25.0 mg/kg/injection, schedule: Q01DX009 (ip), vehicle: saline with Tween-80
# [5] = dose: 100.0 mg/kg/injection, schedule: Q04DX003 (ip), vehicle: saline with Tween-80
# [6] = dose: 200.0 mg/kg/injection, schedule: Q04DX003 (ip), vehicle: saline with Tween-80
# [7] = dose: 100.0 mg/kg/injection, schedule: Q01DX009 (ip), vehicle: Klucel (hydroxypropylcellulose) (HPC)
# [8] = dose: 200.0 mg/kg/injection, schedule: Q01DX009 (ip), vehicle: Klucel (hydroxypropylcellulose) (HPC)
# [9] = dose: 50.0 mg/kg/injection, schedule: Q01DX009 (ip), vehicle: Klucel (hydroxypropylcellulose) (HPC)
# [10] = dose: 200.0 mg/kg/injection, schedule: Q01DX009 (ip), vehicle: saline
smiles,measurement,setting,value
COc1cccc2c1C(=O)c1c(O)c3c(c(O)c1C2=O)C[C@@](O)(C(C)=O)C[C@@H]3OC1CC(N(Cc2ccccc2)Cc2ccccc2)C(O)C(C)O1 (stereo partly specified),T/C,"dose: 37.5 mg/kg/injection, schedule: Q04DX003 (ip), vehicle: water",227 % of control
same,T/C,"dose: 150.0 mg/kg/injection, schedule: Q04DX003 (ip), vehicle: water",100 % of control
same,T/C,"dose: 300.0 mg/kg/injection, schedule: Q04DX003 (ip), vehicle: water",102 % of control
O=C(O)C(S)C(S)C(=O)O.[As] (stereo unspecified),T/C,"dose: 25.0 mg/kg/injection, schedule: Q01DX009 (ip), vehicle: saline",94 % of control
same,T/C,"dose: 25.0 mg/kg/injection, schedule: Q04DX003 (ip), vehicle: saline sonified",118 % of control
same,T/C,[1],88 % of control
same,T/C,"dose: 50.0 mg/kg/injection, schedule: Q04DX003 (ip), vehicle: saline sonified",118 % of control
same,T/C,[2],88 % of control
same,T/C,[3],122 % of control
CCC1=CCN2CCC34c5cc(C6(C(=O)OC)CC7CC(CC)CN(CCc8c6[nH]c6ccccc86)C7)c(OC)cc5N(C)C3C(O)(C(=O)OC)C(OC(C)=O)C1C24 (stereo unspecified),T/C,"dose: 0.03 mg/kg/injection, schedule: Q01DX010 (ip), vehicle: saline",100 % of control
same,T/C,"dose: 0.06 mg/kg/injection, schedule: Q01DX010 (ip), vehicle: saline",104 % of control
same,T/C,"dose: 0.13 mg/kg/injection, schedule: Q01DX010 (ip), vehicle: saline",95 % of control
same,T/C,"dose: 0.25 mg/kg/injection, schedule: Q01DX010 (ip), vehicle: saline",100 % of control
same,T/C,"dose: 0.5 mg/kg/injection, schedule: Q01DX010 (ip), vehicle: saline",86 % of control
O=[N+]([O-])c1cc2c(c([N+](=O)[O-])c1)OCOC2,T/C,[4],95 % of control
same,T/C,"dose: 50.0 mg/kg/injection, schedule: Q01DX009 (ip), vehicle: saline with Tween-80",95 % of control
same,T/C,"dose: 100.0 mg/kg/injection, schedule: Q01DX009 (ip), vehicle: saline with Tween-80",86 % of control
same,T/C,[5],100 % of control
same,T/C,[6],95 % of control
CCOC(=O)c1c(NC(=O)C(F)(F)F)[nH]c(SSc2[nH]c(NC(=O)C(F)(F)F)c(C(=O)OCC)c2C(=O)OCC)c1C(=O)OCC,T/C,"dose: 1.0 mg/kg/injection, schedule: Q01DX009 (ip), vehicle: water",111 % of control
same,T/C,"dose: 2.0 mg/kg/injection, schedule: Q01DX009 (ip), vehicle: water",90 % of control
same,T/C,"dose: 4.0 mg/kg/injection, schedule: Q01DX009 (ip), vehicle: water",104 % of control
same,T/C,"dose: 8.0 mg/kg/injection, schedule: Q01DX009 (ip), vehicle: water",104 % of control
same,T/C,"dose: 50.0 mg/kg/injection, schedule: Q04DX003 (ip), vehicle: saline with Tween-80",106 % of control
same,T/C,[5],117 % of control
same,T/C,[6],106 % of control
COC(=O)C(NC(C)=O)C(=O)OC,T/C,[7],104 % of control
same,T/C,[8],92 % of control
same,T/C,"dose: 400.0 mg/kg/injection, schedule: Q01DX009 (ip), vehicle: Klucel (hydroxypropylcellulose) (HPC)",88 % of control
C[C@@H]1C[C@H]2C(=CC1=O)CC[C@@H]1[C@@H]2CC[C@@]2(C)[C@H]1CC[C@]2(C)O,T/C,[9],95 % of control
same,T/C,"dose: 50.0 mg/kg/injection, schedule: Q04DX003 (ip), vehicle: Klucel (hydroxypropylcellulose) (HPC)",91 % of control
same,T/C,[7],87 % of control
same,T/C,"dose: 100.0 mg/kg/injection, schedule: Q04DX003 (ip), vehicle: Klucel (hydroxypropylcellulose) (HPC)",91 % of control and 103 % of control
same,T/C,[8],108 % of control
same,T/C,"dose: 200.0 mg/kg/injection, schedule: Q04DX003 (ip), vehicle: Klucel (hydroxypropylcellulose) (HPC)",96 % of control and 100 % of control
CC(Cl)CN(CC(C)Cl)c1ccc(S(=O)(=O)Nc2ncccn2)cc1 (stereo unspecified),T/C,"dose: 12.0 mg/kg/injection, schedule: Q01DX009 (ip), vehicle: gum acacia",152 % of control
same,T/C,"dose: 26.0 mg/kg/injection, schedule: Q01DX009 (ip), vehicle: gum acacia",166 % of control and 172 % of control
same,T/C,"dose: 40.0 mg/kg/injection, schedule: Q01DX009 (ip), vehicle: gum acacia",175 % of control
same,T/C,"dose: 50.0 mg/kg/injection, schedule: Q01DX009 (ip), vehicle: gum acacia",190 % of control
same,T/C,"dose: 50.0 mg/kg/injection, schedule: Q04DX003 (ip), vehicle: gum acacia",100 % of control
same,T/C,"dose: 60.0 mg/kg/injection, schedule: Q01DX009 (ip), vehicle: gum acacia",183 % of control
same,T/C,"dose: 90.0 mg/kg/injection, schedule: Q01DX009 (ip), vehicle: gum acacia",183 % of control and 215 % of control
same,T/C,"dose: 100.0 mg/kg/injection, schedule: Q01DX009 (ip), vehicle: gum acacia",272 % of control
same,T/C,"dose: 100.0 mg/kg/injection, schedule: Q04DX003 (ip), vehicle: gum acacia",100 % of control
same,T/C,"dose: 133.0 mg/kg/injection, schedule: Q01DX009 (ip), vehicle: gum acacia",230 % of control
same,T/C,"dose: 200.0 mg/kg/injection, schedule: Q04DX003 (ip), vehicle: gum acacia",105 % of control
CC1C(=O)OC2CCN3CC4OC4(COC(=O)C(C)(O)C1(C)O)C23 (stereo unspecified),T/C,[9],95 % of control
same,T/C,[7],95 % of control
same,T/C,[3],108 % of control
same,T/C,[8],100 % of control
same,T/C,"dose: 400.0 mg/kg/injection, schedule: Q04DX003 (ip), vehicle: saline sonified",95 % of control
NC(=O)SCC(N)C(=O)O (stereo unspecified),T/C,[1],115 % of control
same,T/C,[2],115 % of control
same,T/C,[10],118 % of control
N#CCCNCCC#N,T/C,[1],91 % of control
same,T/C,[2],108 % of control
same,T/C,"dose: 100.0 mg/kg/injection, schedule: Q04DX003 (ip), vehicle: saline",105 % of control
same,T/C,[10],104 % of control
same,T/C,"dose: 200.0 mg/kg/injection, schedule: Q04DX003 (ip), vehicle: saline",105 % of control
COc1cc(NC(=O)N(CCCl)N=O)cc(OC)c1OC,T/C,"dose: 0.88 mg/kg/injection, schedule: Q04DX003 (ip), vehicle: saline + alcohol",114 % of control
same,T/C,"dose: 1.6 mg/kg/injection, schedule: Q01DX009 (ip), vehicle: saline + alcohol",168 % of control
same,T/C,"dose: 2.4 mg/kg/injection, schedule: Q01DX009 (ip), vehicle: saline + alcohol",161 % of control
same,T/C,"dose: 3.0 mg/kg/injection, schedule: Q04DX003 (ip), vehicle: saline + alcohol",166 % of control
same,T/C,"dose: 3.7 mg/kg/injection, schedule: Q01DX009 (ip), vehicle: saline + alcohol",203 % of control
same,T/C,"dose: 5.5 mg/kg/injection, schedule: Q04DX003 (ip), vehicle: saline + alcohol",168 % of control
same,T/C,"dose: 5.56 mg/kg/injection, schedule: Q01DX009 (ip), vehicle: saline + alcohol",201 % of control and 203 % of control
same,T/C,"dose: 8.3 mg/kg/injection, schedule: Q04DX003 (ip), vehicle: saline + alcohol",218 % of control
same,T/C,"dose: 8.33 mg/kg/injection, schedule: Q01DX009 (ip), vehicle: saline + alcohol",220 % of control
same,T/C,"dose: 12.5 mg/kg/injection, schedule: Q01DX009 (ip), vehicle: saline + alcohol",226 % of control
same,T/C,"dose: 12.5 mg/kg/injection, schedule: Q04DX003 (ip), vehicle: saline + alcohol",227 % of control
same,T/C,"dose: 18.7 mg/kg/injection, schedule: Q01DX009 (ip), vehicle: saline + alcohol",111 % of control
same,T/C,"dose: 18.7 mg/kg/injection, schedule: Q04DX003 (ip), vehicle: saline + alcohol",268 % of control
same,T/C,"dose: 25.0 mg/kg/injection, schedule: Q01DX009 (ip), vehicle: saline + alcohol",108 % of control
O=[N+]([O-])c1ccc2scc3c4ccccc4nc-3c2c1,T/C,"dose: 6.25 mg/kg/injection, schedule: Q01DX009 (ip), vehicle: saline",103 % of control
Cc1c(O)ccc([N+](=O)[O-])c1O,T/C,"dose: 6.25 mg/kg/injection, schedule: Q01DX009 (ip), vehicle: saline with Tween-80",91 % of control
same,T/C,"dose: 6.25 mg/kg/injection, schedule: Q04DX003 (ip), vehicle: saline with Tween-80",104 % of control
same,T/C,"dose: 12.5 mg/kg/injection, schedule: Q01DX009 (ip), vehicle: saline with Tween-80",100 % of control
same,T/C,"dose: 12.5 mg/kg/injection, schedule: Q04DX003 (ip), vehicle: saline with Tween-80",91 % of control
same,T/C,[4],91 % of control
same,T/C,"dose: 25.0 mg/kg/injection, schedule: Q04DX003 (ip), vehicle: saline with Tween-80",104 % of control
NC(=O)c1c(Br)n(C2OC(CO)C(O)C2O)c2ncnc(N)c12 (stereo unspecified),T/C,[1],95 % of control
